Consider two molecules from US9387214B2, “Method of identifying therapies for pulmonary hypertension” (United Therapeutics Corporation, priority 2012, dated 2016).

In the test the test system is human erythrocytes. Description: Erythrocyte ATP release. Type of test: cell-based. The procedure: Erythrocyte ATP release was measured in both the absence and presence of (a) the PGI2 agonist, treprostinil in the form of UT-15 or its vehicle, saline, and (b) alone or in combination with the selective PDE5 inhibitor, zapranist (ZAP, 10 μM).

Entries after “also recorded” stand apart in the source; their conditions may differ.

For `CCCCC[C@H](O)CC[C@@H]1[C@H]2Cc3cccc(OCC(=O)O)c3C[C@H]2C[C@H]1O` [UT-15, treprostinil], the “ATP release from erythrocytes” value (UT-15 30 nM alone, n=7) is given as “no ATP release was detected”; the “ATP release from erythrocytes” value (UT-15 30 nM, cells pretreated with ZAP 10 μM, n=7) was “induce a response; also recorded: ATP release was stimulated”; the “ATP release from erythrocytes” value (UT-15 100 nM alone, n=7) was “no ATP release was detected”; the “ATP release from erythrocytes” value (UT-15 100 nM, cells pretreated with ZAP 10 μM, n=7) is “induce a response; also recorded: ATP release was stimulated”. Moreover, under “UT-15 1 uM alone, n=7”, the “ATP release from erythrocytes compared to controls” value is given as “increase in ATP release”. Also, the “ATP release from human erythrocytes” value is reported as “does not stimulate ATP release” (UT-15 alone at 10 to 100 nM, FIG. 3) and “stimulates increases in ATP release” (UT-15 alone, FIG. 2, concentration not printed in legend).
In the case of `CCCOc1ccccc1-c1nc2nn[nH]c2c(=O)[nH]1` [zapranist], the “potentiation of UT-15-induced increases in ATP release” value (FIG. 2, concentration not printed in legend) is on record as “potentiated”. Besides, under “ZAP 10 μM pretreatment, UT-15 1 uM, P<0.05”, the “potentiation of UT-15-induced ATP release” value is “potentiated”.
